Measurements taken from publication PMC12735718, “Novel Adamantane–Sclareol Hybrids Exploit ROS Vulnerability to Overcome Multidrug-Resistance in Glioblastoma Cells” (Molecules, 2025).

Legend:
[1] = system: mitochondrial membrane potential in U87 and U87-TxR cells; test: TMRE mitochondrial membrane potential; type: cell-based, human; conditions: 4 µM, 24 h, both cell lines
Experimental: The cell-permeable fluorescent dye TMRE was used to evaluate mitochondrial membrane potential. TMRE selectively accumulates in active mitochondria with intact membrane potential. […] U87 and U87-TxR cells were seeded in 6-well plates at a density of 150,000 cells per well. After 24 h, cells were treated with 2 and 5 (4 µM) and incubated for an additional 24 h. After treatment, cells were trypsinized, resuspended in complete medium containing 500 nM TMRE, and incubated for 30 min at 37 °C in the dark. CCCP (10 µM) was used as a positive control for mitochondrial depolarization and added 30 min before staining. For each sample, at least 10,000 events were collected. TMRE was detected at […]. The results were calculated using CytExpert 2.4.0.28 software (Beckman Coulter, Indianapolis, IN, USA).

[2] = system: SVG p12 cells; test: MTT cell viability assay, SVG p12; type: cell-based, human; conditions: for IC50: Homo sapiens, SVGp12, 72 h treatment, MTT, normal glial cell line; for Selectivity Index: IC50 SVG p12 vs average IC50 in A-172, U87 and U87-TxR
Experimental: (§1) Cell viability was measured using the colorimetric MTT assay based on the reduction of MTT into formazan dye. Cell lines were seeded into 96-well cell culture plates (4000 cells/well) in appropriate medium. After overnight incubation, cells were treated with increasing concentrations of 1, 2, 3, 4, 5, and 6 (0.5, 1, 2, 4, and 8 µM). After 72 h treatment, MTT solution (4 mg/mL) was added and plates were incubated at 37 °C with 5% CO2 for 3 h. After incubation, formazan crystals were dissolved using 100 µL DMSO, resulting in a purple color. The absorbance was measured at 570 nm with a reference wavelength of 690 nm using an automated microplate reader (MultiskanSky, Thermo Scientific, USA). The IC50 values were determined by non-linear regression analysis in GraphPad Prism 8.0.2. software (GraphPad Software, Boston, MA, USA).

[3] = system: TrxR1 protein in U87-TxR cells; test: TrxR1 protein expression by flow cytometry, U87-TxR; type: cell-based, human; conditions: 48 h; for protein level of TrxR1: 2 µM and 4 µM
Experimental: (§2) Flow cytometry was used to assess TrxR1 and ASK1 protein expression in the U87 and U87-TxR cell lines. Cells were seeded and allowed to attach overnight before exposure to compounds 2 and 5 at final concentrations of 2 μM and 4 μM. After 48 h treatment, cells were collected by trypsinization, rinsed with PBS, and subsequently fixed in 4% PFA for 10 min at room temperature. For permeabilization, ice-cold absolute methanol was added, and the samples were maintained at −20 °C overnight. Following this step, cells were washed in PBS and incubated for 1 h in 0.5% BSA/PBS to block nonspecific binding. Pelleted cells were then resuspended in primary antibodies diluted in 0.5% BSA/PBS [(ASK1, 1:200 (ab45178, Abcam, Cambridge, UK); TrxR1, 1:500 (ab124954, Abcam, Cambridge, UK)] and incubated overnight at +4 °C. Cells were then washed in PBS and incubated for 1 h at room temperature in the dark with fluorescently labeled anti-rabbit IgG secondary antibody (Alexa Fluor 488, ab150097, Abcam, Cambridge, UK), diluted 1:1000 in 0.5% BSA/PBS. Following incubation, samples were washed, resuspended in cold PBS, and analyzed by flow cytometry. A minimum of 10,000 events per sample were acquired, and fluorescence was detected in a green fluorescence channel (525 nm). Data acquisition and processing were performed using CytExpert software (version 2.4.0.28; Beckman Coulter, Indianapolis, IN, USA).

[4] = system: U87-TxR cells; test: MTT cell viability assay, U87-TxR; type: cell-based, human; conditions: Homo sapiens, U87-TxR; 72 h treatment, MTT, MDR cell line
Experimental: as §1

[5] = system: P-gp; design: method as in PMID 40939538; conditions: non-small cell lung carcinoma sensitive and MDR P-gp-overexpressing cells ref 23; cited from earlier work
[6] = system: TrxR1 protein in U87 cells; test: TrxR1 protein expression by flow cytometry, U87; type: cell-based, human; conditions: U87, 4 µM, 48 h
Experimental: as §2

[7] = system: ASK1 protein in U87-TxR cells; test: ASK1 protein expression by flow cytometry, U87-TxR; type: cell-based, human; conditions: 48 h; for ASK1 protein levels: 2 µM and 4 µM
Experimental: as §2

[8] = system: U87-TxR cells; test: Cell death detection, AV/PI staining, U87-TxR; type: cell-based, human; conditions: 48 h; for cell death effect in MDR U87-TxR cells vs sensitive U87 cells: 4 µM, AV/PI; for percentage of early apoptotic cells vs untreated: 2 µM and 4 µM, particularly at 4 µM
Experimental: To evaluate the extent of cell death upon treatment with adamantane–sclareol hybrids, apoptotic, necrotic, and viable cell populations were assessed using dual staining with AV/PI. U87 and U87-TxR cells were seeded in 6-well plates at a density of 150,000 cells per well and incubated overnight. Subsequently, cells were treated with 2 and 5 (2 µM and 4 µM) for 48 h. At the end of the treatment period, cells were collected (both adherent and floating), washed, and incubated with AV/PI in binding buffer. Samples were analyzed using a CytoFLEX flow cytometer (Beckman Coulter, Indianapolis, IN, USA), with fluorescence signals detected at 525 nm (AV) and 585 nm (PI). At least 10,000 events were recorded per each condition. The percentages of viable (AV^− PI^−), early apoptotic (AV^+ PI^−), late apoptotic (AV^+ PI^+), and necrotic (AV^− PI^+) cells were calculated using CytExpert 2.4.0.28 software (Beckman Coulter, Indianapolis, IN, USA).

[9] = Maximum tolerated dose testing; conditions: Rag1-/- (immunodeficient), mouse, in vivo, ip, male Rag1 mice; read-out: maximal tolerated dose (MTD)
Experimental: (§3) Male immunodeficient mice (Rag1^−/−), aged 4–8 weeks, were used for xenograft studies. A total of 1 × 10^6 U87 cells were injected subcutaneously into the rear axillary region to establish solid tumors. […] Maximum tolerated dose (MTD) testing for 5 was performed in 6- to 8-week-old male Rag1 mice using two animals per dose group. Compound 5 was administered i.p. at doses of 7 mg/kg, 12.5 mg/kg, 25 mg/kg, 50 mg/kg, 100 mg/kg, and 200 mg/kg. The carrier consisted of 10% (v/v) DMSO with 5% (v/v) Tween-80 and was diluted in 0.9% (w/v) NaCl. Animals were monitored for weight loss, changes in feeding or neurological signs, and any morbidity to identify the highest non-toxic dose. For efficacy studies, Rag1 mice were inoculated subcutaneously with 1 × 10^6 cells (mean starting weight ≈ 20 g); animals were then randomized into treatment groups. The compound 5 group (n = 5) received 7 mg/kg i.p. (two injections during the study period). Comparator groups included carrier control (n = 5). Compound 5 was formulated in the vehicle described above. The study was terminated when tumors in untreated mice reached approximately 11% of body weight. At termination, animals were euthanized and tumors were excised. Tumor volumes and body weights were recorded throughout the experiment and used to assess efficacy and tolerability.

[10] = system: subcutaneous xenografts of U87 cells; test: Preliminary efficacy study, subcutaneous U87 xenografts; type: in vivo; conditions: 7 mg/kg, administered twice i.p.
Experimental: as §3

SMILES | TMRE fluorescence (mitochondrial membrane potential) [1] | IC50 [2] [µM] | Selectivity Index [2] | protein level of TrxR1 [3] | IC50 [4] [µM] | P-gp interaction [5] | TrxR1 levels [6] | ASK1 protein levels [7] | cell death effect in MDR U87-TxR cells vs sensitive U87 cells [8] | percentage of early apoptotic cells vs untreated [8] | MTD [9] [mg/kg] | increase in TrxR1 level ([3]; 4 µM, relative to untreated control) [%] | ASK1 expression ([7]; 4 µM, not statistically significant) | early apoptotic population (AV+ PI−) ([8]; untreated cells 4.17%, Figure S3) [%] | Body weight [10] | tumor growth ([10]; over 12 days)
CC1(C)CCC[C@]2(C)[C@@H](CC[C@@](C)(O)/C=C/c3ccc(CNCCCCCCCCNCC45CC6CC(CC(C6)C4)C5)s3)[C@](C)(O)CC[C@@H]12 [Compound 2] | decreased | 6.2 ± 0.145 | 2.813 ^S | significantly increased | 1.96 ± 0.049 | P-gp inhibitor | slight increase | increased | significantly better effects in MDR U87-TxR cells | significant increase | – | – | – | – | – | –
CC1(C)CCC[C@]2(C)[C@@H](CC[C@@](C)(O)/C=C/c3ccc(CNCCCCCCCCNCC45CC6CC(CC(C6)C4)C5)o3)[C@](C)(O)CC[C@@H]12 [Compound 5] | decreased | 6.69 ± 0.128 | 1.470 | significantly increased | 3.78 ± 0.118 | P-gp substrate | – | increased | significantly better effects in MDR U87-TxR cells | significant increase | 25 | 69 | slightly increased | 32.6 | not adversely affected | strongly inhibits tumor growth
